Data published in PubChem BioAssay AID1259407 (Chemical Carcinogenesis Research Information System (CCRIS), 2018).
Active and inactive are the calls of the source. No rule for the calls is given here.

Tested on: CCRIS mutagenicity, Ames/micronucleus/aberration tests
Test: CCRIS mutagenicity studies
[1] = Test System: AMES SALMONELLA TYPHIMURIUM, Strain/Indicator: TA100, Metabolic Activation: RAT, LIVER, S-9, AROCLOR 1254, Method: STANDARD PLATE
[2] = Test System: AMES SALMONELLA TYPHIMURIUM, Strain/Indicator: TA98, Metabolic Activation: NONE, Method: STANDARD PLATE
[3] = Test System: AMES SALMONELLA TYPHIMURIUM, Strain/Indicator: TA100, Metabolic Activation: NONE, Method: STANDARD PLATE

Measured: mutagenic call

O=[N+]([O-])C(Cl)(Cl)Br
active: Test System: Ames Salmonella typhimurium, Strain/Indicator: RSJ100, Metabolic Activation: Rat, Liver, S-9, Aroclor, Method: Standard plate active; positive | Test System: Ames Salmonella typhimurium, Strain/Indicator: TA104, Metabolic Activation: None, Method: Standard plate active; positive | Test System: Ames Salmonella typhimurium, Strain/Indicator: TA104, Metabolic Activation: Rat, Liver, S-9, Aroclor, Method: Standard plate active; positive
inactive: Test System: Ames Salmonella typhimurium, Strain/Indicator: RSJ100, Metabolic Activation: None, Method: Standard plate inactive; negative | Test System: Ames Salmonella typhimurium, Strain/Indicator: TA98, Metabolic Activation: None, Method: Standard plate inactive; negative | Test System: Ames Salmonella typhimurium, Strain/Indicator: TA98, Metabolic Activation: Rat, Liver, S-9, Aroclor, Method: Standard plate inactive; negative | Test System: Ames Salmonella typhimurium, Strain/Indicator: TA100, Metabolic Activation: None, Method: Standard plate inactive; negative | Test System: Ames Salmonella typhimurium, Strain/Indicator: TA100, Metabolic Activation: Rat, Liver, S-9, Aroclor, Method: Standard plate inactive; negative | Test System: Ames Salmonella typhimurium, Strain/Indicator: TPT100, Metabolic Activation: None, Method: Standard plate inactive; negative

O=S(=O)(O)N(S(=O)(=O)O)S(=O)(=O)O
inactive: Test System: AMES SALMONELLA TYPHIMURIUM, Strain/Indicator: G46, Metabolic Activation: RAT, LIVER, S-9, AROCLOR 1254, Method: STANDARD PLATE inactive; negative | [1] inactive; negative

Oc1ccc2ccc3c4ccccc4cc4ccc1c2c43
active: Test System: AMES SALMONELLA TYPHIMURIUM, Strain/Indicator: TA97, Metabolic Activation: RAT, LIVER, S-9, AROCLOR 1254, Method: STANDARD PLATE active; positive | [2] active; positive | Test System: AMES SALMONELLA TYPHIMURIUM, Strain/Indicator: TA98, Metabolic Activation: RAT, LIVER, S-9, AROCLOR 1254, Method: STANDARD PLATE active; positive | [3] active; positive | [1] active; positive | Test System: AMES SALMONELLA TYPHIMURIUM, Strain/Indicator: TA1537, Metabolic Activation: RAT, LIVER, S-9, AROCLOR 1254, Method: STANDARD PLATE active; positive | Test System: CHINESE HAMSTER V-79, Strain/Indicator: V-79/8-AZAGUANINE, Metabolic Activation: NONE, Method: STANDARD PLATE active; positive

Nc1ncnc2c1nc(-c1ccc([N+](=O)[O-])cc1)n2-c1ccc([N+](=O)[O-])cc1
active: Test System: AMES SALMONELLA TYPHIMURIUM, Strain/Indicator: TA98(1,8-DNP), Metabolic Activation: NONE, Method: PREINCUBATION active; positive | Test System: AMES SALMONELLA TYPHIMURIUM, Strain/Indicator: TA98(1,8-DNP), Metabolic Activation: RAT, LIVER, S-9, PCB, Method: PREINCUBATION active; positive | Test System: AMES SALMONELLA TYPHIMURIUM, Strain/Indicator: TA98(NR), Metabolic Activation: NONE, Method: PREINCUBATION active; positive | Test System: AMES SALMONELLA TYPHIMURIUM, Strain/Indicator: TA98(NR), Metabolic Activation: RAT, LIVER, S-9, PCB, Method: PREINCUBATION active; positive | Test System: AMES SALMONELLA TYPHIMURIUM, Strain/Indicator: TA98, Metabolic Activation: NONE, Method: PREINCUBATION active; positive | Test System: AMES SALMONELLA TYPHIMURIUM, Strain/Indicator: TA98, Metabolic Activation: RAT, LIVER, S-9, PCB, Method: PREINCUBATION active; positive | Test System: AMES SALMONELLA TYPHIMURIUM, Strain/Indicator: TA100, Metabolic Activation: NONE, Method: PREINCUBATION active; positive | Test System: AMES SALMONELLA TYPHIMURIUM, Strain/Indicator: TA100, Metabolic Activation: RAT, LIVER, S-9, PCB, Method: PREINCUBATION active; positive | Test System: AMES SALMONELLA TYPHIMURIUM, Strain/Indicator: YG1020, Metabolic Activation: NONE, Method: PREINCUBATION active; positive | Test System: AMES SALMONELLA TYPHIMURIUM, Strain/Indicator: YG1020, Metabolic Activation: RAT, LIVER, S-9, PCB, Method: PREINCUBATION active; positive | Test System: AMES SALMONELLA TYPHIMURIUM, Strain/Indicator: YG1021, Metabolic Activation: NONE, Method: PREINCUBATION active; positive | Test System: AMES SALMONELLA TYPHIMURIUM, Strain/Indicator: YG1021, Metabolic Activation: RAT, LIVER, S-9, PCB, Method: PREINCUBATION active; positive | Test System: AMES SALMONELLA TYPHIMURIUM, Strain/Indicator: YG1024, Metabolic Activation: NONE, Method: PREINCUBATION active; positive | Test System: AMES SALMONELLA TYPHIMURIUM, Strain/Indicator: YG1024, Metabolic Activation: RAT, LIVER, S-9, PCB, Method: PREINCUBATION active; positive | Test System: AMES SALMONELLA TYPHIMURIUM, Strain/Indicator: YG1025, Metabolic Activation: NONE, Method: PREINCUBATION active; positive | Test System: AMES SALMONELLA TYPHIMURIUM, Strain/Indicator: YG1025, Metabolic Activation: RAT, LIVER, S-9, PCB, Method: PREINCUBATION active; positive | Test System: AMES SALMONELLA TYPHIMURIUM, Strain/Indicator: YG1026, Metabolic Activation: NONE, Method: PREINCUBATION active; positive | Test System: AMES SALMONELLA TYPHIMURIUM, Strain/Indicator: YG1026, Metabolic Activation: RAT, LIVER, S-9, PCB, Method: PREINCUBATION active; positive | Test System: AMES SALMONELLA TYPHIMURIUM, Strain/Indicator: YG1029, Metabolic Activation: NONE, Method: PREINCUBATION active; positive | Test System: AMES SALMONELLA TYPHIMURIUM, Strain/Indicator: YG1029, Metabolic Activation: RAT, LIVER, S-9, PCB, Method: PREINCUBATION active; positive
inactive: Test System: AMES SALMONELLA TYPHIMURIUM, Strain/Indicator: TA100(1,8-DNP), Metabolic Activation: NONE, Method: PREINCUBATION inactive; negative | Test System: AMES SALMONELLA TYPHIMURIUM, Strain/Indicator: TA100(1,8-DNP), Metabolic Activation: RAT, LIVER, S-9, PCB, Method: PREINCUBATION inactive; negative | Test System: AMES SALMONELLA TYPHIMURIUM, Strain/Indicator: TA100(NR), Metabolic Activation: NONE, Method: PREINCUBATION inactive; negative | Test System: AMES SALMONELLA TYPHIMURIUM, Strain/Indicator: TA100(NR), Metabolic Activation: RAT, LIVER, S-9, PCB, Method: PREINCUBATION inactive; negative

c1ccc([C@H]2CO2)cc1
active: Test System: AMES SALMONELLA TYPHIMURIUM, Strain/Indicator: TA100, Metabolic Activation: NONE active; positive | [3] active; positive

CC(CNC(=O)c1cccnc1)NC(=O)c1cccnc1 (centres undefined)
inactive: [2] inactive; negative | Test System: AMES SALMONELLA TYPHIMURIUM, Strain/Indicator: TA98, Metabolic Activation: RAT, LIVER, S-9, PHENOBARBITAL AND 5,6-BENZOFLAVONE, Method: STANDARD PLATE inactive; negative | [3] inactive; negative | Test System: AMES SALMONELLA TYPHIMURIUM, Strain/Indicator: TA100, Metabolic Activation: RAT, LIVER, S-9, PHENOBARBITAL AND 5,6-BENZOFLAVONE, Method: STANDARD PLATE inactive; negative | Test System: AMES SALMONELLA TYPHIMURIUM, Strain/Indicator: TA1535, Metabolic Activation: NONE, Method: STANDARD PLATE inactive; negative | Test System: AMES SALMONELLA TYPHIMURIUM, Strain/Indicator: TA1535, Metabolic Activation: RAT, LIVER, S-9, PHENOBARBITAL AND 5,6-BENZOFLAVONE, Method: STANDARD PLATE inactive; negative | Test System: AMES SALMONELLA TYPHIMURIUM, Strain/Indicator: TA1537, Metabolic Activation: NONE, Method: STANDARD PLATE inactive; negative | Test System: AMES SALMONELLA TYPHIMURIUM, Strain/Indicator: TA1537, Metabolic Activation: RAT, LIVER, S-9, PHENOBARBITAL AND 5,6-BENZOFLAVONE, Method: STANDARD PLATE inactive; negative | Test System: E. COLI, Strain/Indicator: WP2 UVRA, Metabolic Activation: NONE, Method: STANDARD PLATE inactive; negative | Test System: E. COLI, Strain/Indicator: WP2 UVRA, Metabolic Activation: RAT, LIVER, S-9, PHENOBARBITAL AND 5,6-BENZOFLAVONE, Method: STANDARD PLATE inactive; negative
